Measured values: patent US8129413B2, “Crystalline forms of MC4R agonist and process for synthesis” (Merck Sharp & Dohme Corp., priority 2005, dated 2012)
Blank lines part the entries; values can stand above or below the molecule they belong to.

Legend:
Format in all cases: physicochemical
[1] = Crystal form conversion on exposure to relative humidity
Description: (§1) Method 2 Drying the crystalline hydrate mono HCl salt of Compound I (1-7) at a temperature over about 4° C. and relative a humidity less than about 10% yields the crystalline anhydrous mono HCl salt Form I of Compound I (1-5). The crystalline hydrate mono HCl salt of Compound I (1-7) converts to the crystalline anhydrous mono HCl salt Form I of Compound I (1-5) by means of a continuous change; as the crystalline hydrate is dried, the x-ray diffraction pattern, solid-state carbon-13 CPMAS, and solid-state fluorine-19 MAS patterns merge from the crystalline hydrate to crystalline anhydrous Form I. Incomplete conversion to the anhydrous form I will yield a unique phase, not merely a mixture of crystalline anhydrous form I and crystalline hydrate.
Method 1 A solution of compound 1-3 from Example 1 (14.6 g, 26.7 mmol) in isopropyl acetate (91 ml, at 160 g/L) was agitated in vessel 1 at 15-25° C., and 0.5 N HCl/H2O solution (54.4 mL, 27.2 mmol) was added. The mixture was aged for 5-10 minutes with agitation followed by settling without agitation. The aqueous layer was removed and transferred to vessel 2. 20 ml of deionized water were charged to vessel 1, as a rinse of the isopropyl acetate layer. After agitating the isopropyl acetate-deionized water mixture for about 5 minutes, the aqueous layer was removed and combined with the aqueous layer in vessel 2. […]

[2] = Thermodynamic stability and interconversion of crystalline forms
Description: as §1

[3] = Storage stability of the free base

relative humidity at which anhydrous Form I converts to crystalline hydrate mono HCl salt ([1]; exposure to humidity, continuous structural change): greater than 20%
Compound: CC(=O)N[C@@H](C)c1cc(Cl)ccc1C1CCN(C(=O)C2CN(C(C)(C)C)C[C@H]2c2ccc(F)cc2F)CC1 (stereo partly drawn) [Compound 1-5]

Compound: CC(=O)N[C@@H](C)c1cc(Cl)ccc1C1CCN(C(=O)C2CN(C(C)(C)C)C[C@H]2c2ccc(F)cc2F)CC1 (stereo partly drawn) [Compound 1-6]
physical stability of the crystal form (conversion to another form) ([2]; room temperature): converts to crystalline anhydrous mono HCl salt Form I (1-5) at room temperature

relative humidity at which hydrate converts to anhydrous mono HCl salt Form I ([1]; drying at a temperature over about 4° C.): less than 10%
Compound: CC(=O)N[C@@H](C)c1cc(Cl)ccc1C1CCN(C(=O)C2CN(C(C)(C)C)C[C@H]2c2ccc(F)cc2F)CC1 (stereo partly drawn) [Compound 1-7]
thermodynamic stability among crystalline forms ([2]; ambient conditions): most thermodynamically stable crystalline form

storage temperature above which subject to oxidation ([3]; stored): greater than −40 °C
Compound: CC(=O)N[C@@H](C)c1cc(Cl)ccc1C1CCN(C(=O)[C@@H]2CN(C(C)(C)C)C[C@H]2c2ccc(F)cc2F)CC1 [Compound I, N-{(1S)-1-[2-(1-{[(3S,4R)-1-tert-butyl-4-(2,4-difluorophenyl)pyrrolidin-3-yl]carbonyl}piperidin-4-yl)-5-chlorophenyl]ethyl}acetamide]
stability of the solid form ([3]; storage, light, heat): unstable, photosensitive and thermally sensitive
